The nature of the data set: physchem. The settings on record: octanol/buffer.

Each structure is given as a SMILES string.

By logP is commonly meant the decadic logarithm of the partition coefficient of the neutral form, usually between octanol and water. Read a high logP as higher lipophilicity. In turn, `Cc1cc(Cl)c(OCCOc2ccc(N3C(=O)CNC[C@@H]3C(=O)N(C)Cc3ccccc3Cl)cc2)c(Cl)c1` had a logP of 5.18.
The figure for `CCNCc1ccc(Cl)c(CN(C(=O)[C@H]2CNCC(=O)N2c2ccc(CCCOc3c(F)ccc(F)c3F)cc2)C2CC2)c1` is 5.89; for `CC(=O)NCc1ccc(Cl)c(CN(C(=O)[C@H]2CNCC(=O)N2c2ccc(OCCOc3c(Cl)cc(C)cc3Cl)nc2)C2CC2)c1` it is 4.47.
The figure for `COCCCc1cc(CN(C(=O)[C@H]2CNCC(=O)N2c2ccc(OCCOc3c(Cl)cc(C)cc3Cl)cc2)C2CC2)c(Cl)c[n+]1[O-]` is 5.43.
Turning to `COc1cccc(CN(C(=O)[C@H]2CNCC(=O)N2c2ccc(CCCOc3c(F)ccc(F)c3F)cc2)C2CC2)c1C`, the lipophilicity (logP) is 5.39.
In turn, `COc1ccccc1COCCCOc1ccc(N2C(=O)CNC[C@@H]2C(=O)N(Cc2cc(CNCCF)ccc2Cl)C2CC2)cc1` returned a logP of 4.99.
To `O=C([C@H]1CNCC(=O)N1c1ccc(OCCCOCc2ccccc2)cc1)N(Cc1ccccc1Cl)C1CC1` belongs 5.11; to `COc1c(CN(C(=O)[C@H]2CNCC(=O)N2c2ccc(OCCCOCc3ccccc3)cc2)C2CC2)ccnc1C`, 3.49; to `COCCCc1cc(CN(C(=O)[C@H]2CNCC(=O)N2c2ccc(OCCOc3c(Cl)cc(C)cc3Cl)cc2)C2CC2)c(Cl)cn1`, 5.22.
Compound `O=C([C@H]1CNCC(=O)N1c1ccc(CCCOc2cccc(Cl)c2)cc1)N(Cc1cc(CNCCF)ccc1Cl)C1CC1` gave a log partition coefficient (logP) of 5.84.
For the compound `COc1ccccc1COCCCOc1ncc(N2C(=O)CNC[C@@H]2C(=O)N(Cc2ccnc(C)c2OC)C2CC2)cn1`, the log partition coefficient (logP) was determined as 1.44.
Compound `COCCCc1ccc(Cl)c(CN(C(=O)[C@H]2CNCC(=O)N2c2ccc(OCCOc3c(Cl)cc(C)cc3Cl)nc2)C2CC2)c1` came in with a logP of 5.66.
Turning to `COc1ccccc1COCCCOc1ccc(N2C(=O)CNC[C@@H]2C(=O)N(Cc2cccc(Cl)c2Cl)C2CC2)cc1`, the log partition coefficient (logP) was 5.65.
To `COCCCc1ccc(Cl)c(CN(C(=O)[C@H]2CNCC(=O)N2c2ccc(COC(=O)c3ccccc3)cc2)C2CC2)c1` belongs 5.39; to `COc1ccccc1COCCCOc1ncc(N2C(=O)CNC[C@@H]2C(=O)N(Cc2cc(CCNCC(F)F)ccc2Cl)C2CC2)cn1`, 3.37.
With `CNC(=O)Cc1ccc(Cl)c(CN(C(=O)[C@H]2CNCC(=O)N2c2ccc(CCCOc3cccc(Cl)c3)cc2)C2CC2)c1`, the logP worked out at 5.33.
Take `Cc1cc(Cl)c(OCCOc2ccc(N3C(=O)CNC[C@@H]3C(=O)N(C)Cc3ccccc3)cc2)c(Cl)c1`: the logP was 4.59.
To `COCCc1ccc(Cl)c(CN(C(=O)[C@H]2CNCC(=O)N2c2ccc(OCCOc3c(Cl)cc(C)cc3Cl)nc2)C2CC2)c1` belongs 5.22.
On to `CCNCCc1ccc(Cl)c(CN(C(=O)[C@H]2CNCC(=O)N2c2ccc(CCCOc3c(F)ccc(F)c3F)cc2)C2CC2)c1`, for which the lipophilicity (logP) amounted to 5.97.
The figure for `Cc1ccccc1Cc1c(C(=O)N2CCNCC2)c2ccccc2n1-c1ccsc1` is 5.02; for `O=C([C@H]1CNCC(=O)N1c1ccc(OCCCOCc2ccccc2)cc1)N(Cc1cccc(Cl)c1)C1CC1` it is 5.14; for `Cc1cc(Cl)c(OCCOc2ccc(N3C(=O)CNC[C@@H]3C(=O)N(Cc3cccc(Cl)c3Cl)C3CC3)cn2)c(Cl)c1` it is 5.59.
The compound `COc1ccccc1COCCCOc1ncc(N2C(=O)CNC[C@@H]2C(=O)N(C)CCCc2ccccc2)cn1` yielded a logP of 2.34.
Consider `CNC(=O)CCc1ccc(Cl)c(CN(C(=O)[C@H]2CNCC(=O)N2c2ccc(CCCOc3cccc(Cl)c3)cc2)C2CC2)c1`, for which the logP turned out to be 5.42.
As for `COc1cccc(CN(C(=O)[C@H]2CNCC(=O)N2c2ccc(OCCOc3c(Cl)cc(C)cc3Cl)nc2)C2CC2)c1C`, the logP came out at 4.66.
Compound `CC(C)(C)OCC(=O)NCCc1ccc(Cl)c(CN(C(=O)[C@H]2CNCC(=O)N2c2ccc(OCCCOCc3ccccc3)cc2)C2CC2)c1` showed a logP of 5.66.
The figure for `Cc1cc(Cl)c(OCCOc2ccc(N3C(=O)CNC[C@@H]3C(=O)N(Cc3cc(CC(=O)NC4CC4)ccc3Cl)C3CC3)cn2)c(Cl)c1` is 5.08; for `COCCCc1cc(CN(C(=O)[C@H]2CNCC(=O)N2c2ccc(OCCOc3c(Cl)cc(C)cc3Cl)nc2)C2CC2)c(Cl)cn1` it is 4.39.
The figure for `COc1ccccc1COCCCOc1ccc(N2C(=O)CNC[C@@H]2C(=O)N(Cc2cc(CCNCC(F)F)ccc2Cl)C2CC2)cc1` is 5.38.
To `COc1ccccc1COCCCOc1ncc(N2C(=O)CNC[C@@H]2C(=O)N(Cc2cc(CNC(=O)C3CC3)ccc2Cl)C2CC2)cn1` belongs 2.86; to `O=C(NCc1ccccc1)[C@H]1CNCC(=O)N1c1ccc(OCCCOCc2ccccc2)cc1`, 3.67.
For the compound `Cc1cc(Cl)c(OCCOc2ccc(N3C(=O)CNC[C@@H]3C(=O)NCc3ccccc3)cc2)c(Cl)c1`, the logP was found to be 4.39.
`CN(Cc1ccccc1)C(=O)[C@H]1CNCC(=O)N1c1ccc(COC(=O)c2ccccc2)cc1`: the logP is 3.49.
For `COCCCc1cc(CN(C(=O)[C@H]2CNCC(=O)N2c2cnc(OCCCOCc3ccccc3OC)nc2)C2CC2)c(Cl)cn1`, the logP is 2.43.
To `COc1ccccc1COCCCOc1ccc(N2C(=O)CNC[C@@H]2C(=O)N(Cc2cc(CNC(=O)C3CC3)ccc2Cl)C2CC2)cc1` belongs 4.87; to `COC(=O)NCc1ccc(Cl)c(CN(C(=O)[C@H]2CNCC(=O)N2c2ccc(OCCOc3c(Cl)cc(C)cc3Cl)cc2)C2CC2)c1`, 5.58.
The figure for `CCC(=O)NCc1ccc(Cl)c(CN(C(=O)[C@H]2CNCC(=O)N2c2ccc(OCCOc3c(Cl)cc(C)cc3Cl)nc2)C2CC2)c1` is 4.94; for `CNC(=O)OCc1ccc(Cl)c(CN(C(=O)[C@H]2CNCC(=O)N2c2ccc(OCCCOCc3ccccc3)cc2)C2CC2)c1` it is 4.85.
`Cc1cc(Cl)c(OCCOc2ccc(N3C(=O)CNC[C@@H]3C(=O)N(Cc3cc(CCNC(=O)COC(C)(C)C)ccc3Cl)C3CC3)cc2)c(Cl)c1` gave a log partition coefficient (logP) of 6.38.
For the compound `CC(C)(C)OCC(=O)NCCc1ccc(Cl)c(CN(C(=O)[C@H]2CNCC(=O)N2c2ccc(CCCOc3c(F)ccc(F)c3F)cc2)C2CC2)c1`, the logP was found to be 6.28.
To `Cc1cc(Cl)c(OCCOc2ccc(N3C(=O)CNC[C@@H]3C(=O)N(C)CCc3ccccc3)cc2)c(Cl)c1` belongs 4.68; to `CN(Cc1ccccc1)C(=O)[C@H]1CNCC(=O)N1c1ccc(OCCCOCc2ccccc2)cc1`, 3.86; to `COC(=O)NCCc1ccc(Cl)c(CN(C(=O)[C@H]2CNCC(=O)N2c2ccc(OCCCOCc3ccccc3)cc2)C2CC2)c1`, 4.94.
To `Cc1cc(Cl)c(OCCOc2ccc(N3C(=O)CNC[C@@H]3C(=O)N(C)Cc3ccccc3)cn2)c(Cl)c1` belongs 3.76; to `O=C(CC(F)(F)F)NCc1ccc(Cl)c(CN(C(=O)[C@H]2CNCC(=O)N2c2ccc(COC(=O)c3ccccc3)cc2)C2CC2)c1`, 4.92.
`CN(Cc1ccccc1Cl)C(=O)[C@H]1CNCC(=O)N1c1ccc(CCCOc2cccc(Cl)c2)cc1` had a lipophilicity (logP) of 5.25.
To `O=C(Cc1ccc(Cl)c(CN(C(=O)[C@H]2CNCC(=O)N2c2ccc(CCCOc3cccc(Cl)c3)cc2)C2CC2)c1)NC1CC1` belongs 5.98; to `COCCCc1cc(CN(C(=O)[C@H]2CNCC(=O)N2c2ccc(OCCCOCc3ccccc3OC)cc2)C2CC2)c(Cl)c[n+]1[O-]`, 4.66; to `CC(=O)NCCc1ccc(Cl)c(CN(C(=O)[C@H]2CNCC(=O)N2c2ccc(COC(=O)c3ccccc3)cc2)C2CC2)c1`, 4.28.
Compound `Cc1cc(Cl)c(OCCOc2ccc(N3C(=O)CNC[C@@H]3C(=O)N(Cc3cc(CCNCC(F)F)ccc3Cl)C3CC3)cn2)c(Cl)c1` came in with a logP of 5.33.
`Cc1cc(Cl)c(OCCOc2ccc(N3C(=O)CNC[C@@H]3C(=O)N(Cc3ccccc3Cl)C3CC3)cc2)c(Cl)c1`: the logP was 5.83.
The figure for `CNC(=O)Cc1ccc(Cl)c(CN(C(=O)[C@H]2CNCC(=O)N2c2ccc(OCCOc3c(Cl)cc(C)cc3Cl)nc2)C2CC2)c1` is 4.43.
To `Cc1cc(Cl)c(OCCOc2ccc(N3C(=O)CNC[C@@H]3C(=O)N(Cc3cc(CNC(=O)C4CC4)ccc3Cl)C3CC3)cn2)c(Cl)c1` belongs 4.82; to `COCCc1ccc(Cl)c(CN(C(=O)[C@@H]2CNCC(=O)N2c2cnc(OCCCOCc3ccccc3OC)nc2)C2CC2)c1`, 3.26; to `CNC(=O)Cc1ccc(Cl)c(CN(C(=O)[C@H]2CNCC(=O)N2c2ccc(CCCOc3c(F)ccc(F)c3F)cc2)C2CC2)c1`, 5.15.
To `CCNC(=O)Cc1ccc(Cl)c(CN(C(=O)[C@H]2CNCC(=O)N2c2ccc(OCCCOCc3ccccc3OC)cc2)C2CC2)c1` belongs 4.82; to `COCCCc1cc(CN(C(=O)[C@H]2CNCC(=O)N2c2ccc(OCCCOCc3ccccc3)cc2)C2CC2)c(Cl)cn1`, 4.49; to `COc1ccccc1COCCCOc1ccc(N2C(=O)CNC[C@@H]2C(=O)N(Cc2cc(CCNC(=O)CC(F)(F)F)ccc2Cl)C2CC2)cc1`, 5.33.
Regarding `CCNCCc1ccc(Cl)c(CN(C(=O)[C@H]2CNCC(=O)N2c2ccc(CCCOc3cccc(Cl)c3)cc2)C2CC2)c1`, the logP was 6.15.
As to `CNC(=O)Cc1ccc(Cl)c(CN(C(=O)[C@H]2CNCC(=O)N2c2cnc(OCCCOCc3ccccc3OC)nc2)C2CC2)c1`, the logP is 2.47.
In turn, `O=C([C@H]1CNCC(=O)N1c1ccc(OCCCOCc2ccccc2)cc1)N(Cc1cc(CNCCF)ccc1Cl)C1CC1` returned a logP of 5.04.
The figure for `COc1ccccc1COCCCOc1ccc(N2C(=O)CNC[C@@H]2C(=O)N(Cc2cc(CCNC(=O)COC(C)(C)C)ccc2Cl)C2CC2)cc1` is 5.61; for `COc1ccccc1COCCCOc1ncc(N2C(=O)CNC[C@@H]2C(=O)N(Cc2cc(CNCC(F)F)ccc2Cl)C2CC2)cn1` it is 3.28; for `O=C([C@H]1CNCC(=O)N1c1ccc(CCCOc2cccc(Cl)c2)cc1)N(Cc1cc(CNCC(F)F)ccc1Cl)C1CC1` it is 6.14.
To `COc1ccccc1COCCCOc1ccc(N2C(=O)CNC[C@@H]2C(=O)N(Cc2cc(CNC(=O)CC(F)(F)F)ccc2Cl)C2CC2)cc1` belongs 5.25; to `COc1ccccc1COCCCOc1ccc(N2C(=O)CNC[C@@H]2C(=O)N(Cc2cc(CNCC(F)F)ccc2Cl)C2CC2)cc1`, 5.29.
To `O=C([C@H]1CNCC(=O)N1c1ccc(CCCOc2c(F)ccc(F)c2F)cc1)N(Cc1cc(CNC2CC2)ccc1Cl)C1CC1` belongs 6.2; to `O=C(Cc1ccc(Cl)c(CN(C(=O)[C@H]2CNCC(=O)N2c2ccc(OCCCOCc3ccccc3)cc2)C2CC2)c1)NC1CC1`, 5.18.

The values are drawn from ChEMBL document CHEMBL1944551, “An integrated computational workflow for efficient and quantitative modeling of renin inhibitors” (Bioorg Med Chem, 2012).
